Data published in patent publication US12146004B2, “Polymyxin compounds and uses thereof” (priority 2014, dated 2024).
Converted amounts (≈) assume the structure as drawn. Where two headings read alike, the source gives them in different places. Numbered stars: 1 amine (or outer) side, 2 acyl side, 3 side chain; on linkers, the order of the positions; unused ones are H or OH. Bridge positions count the residues as written; N and C are the ends. Square brackets hold non-standard residues; d marks the D form. Peptide text beside a SMILES is read from it. * marks the point of attachment. ξ: configuration not given here. X12 = O=C([C@@H](Cc1ccc(C2CCCCC2)cc1)N[*:1])[*:2]; Thr(3ξ) = CC(O)[C@H](N)C(=O)O; Dab = NCC[C@H](N)C(=O)O; Dap = NC[C@H](N)C(=O)O; X2 = CC(C)CC(CN)C(=O)*

How the values were obtained:
Assay type in all cases: cell-based
[1] = test system: Acinetobacter baumannii
Method in brief: (§1)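 In vitro susceptibility was determined across up to nine strains of each pathogen, some resistant. Potency is given as MIC, μg/mL.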

[2] = test system: Escherichia coli
Method in brief: as §1

[3] = test system: Klebsiella pneumoniae
Method in brief: as §1

[4] = test system: Pseudomonas aeruginosa
Method in brief: as §1

[5] = test system: HK-2 cells
Text: Values are reported relative to Polymyxin B.

MIC A. baumanii 053 [1]	MIC A. baumanii 056 [1]	MIC A. baumanii ATCC BAA-747 [1]	MIC E. coli 058 [2]	MIC E. coli 061 [2]	MIC E. coli ATCC 25922 [2]	MIC K. pneumoniae 063 [3]	MIC K. pneumoniae 065 [3]	MIC K. pneumoniae ATCC 4352 [3]	MIC P. aeruginosa 068 [4]	MIC P. aeruginosa 070 [4]	MIC P. aeruginosa ATCC 27853 [4]	HK-2 IC50 [5]	MIC A. baumanii NCTC 13424 [1]	MIC E. coli NCTC 9001 [2]	MIC P. aeruginosa CCUG 59347 [4]	MIC K. pneumoniae ATCC 13882 [3]	Molecule	further results
32 µg/mL (≈ 28.7 µM)	8 µg/mL (≈ 7.17 µM)	0.06 µg/mL (≈ 0.0537 µM)	2 µg/mL (≈ 1.79 µM)	16 µg/mL (≈ 14.3 µM)	0.06 µg/mL (≈ 0.0537 µM)	32 µg/mL (≈ 28.7 µM)	1 µg/mL (≈ 0.896 µM)	–	4 µg/mL (≈ 3.58 µM)	4 µg/mL (≈ 3.58 µM)	0.25 µg/mL (≈ 0.224 µM)	255 µg/mL	0.03 µg/mL (≈ 0.0269 µM)	0.06 µg/mL (≈ 0.0537 µM)	0.25 µg/mL (≈ 0.224 µM)	0.125 µg/mL (≈ 0.112 µM)	CC(C)C[C@@H]1NC(=O)[C@@H](CC2CCCCC2)NC(=O)[C@H](CCN)NC(=O)[C@@H](NC(=O)[C@H](CN)NC(=O)[C@@H](NC(=O)C(CCN)c2ccccc2)C(C)O)CCNC(=O)[C@H]([C@@H](C)O)NC(=O)[C@H](CCN)NC(=O)[C@H](CCN)NC1=O (single isomer, unassigned; isomer 2) [Example 38, 4-amino-2-phenylbutanoyl L-Thr-L-Dap-polymyxin [D-cyclohexylalanine]-6 heptapeptide. isomer 2]	–
>64 µg/mL	64 µg/mL (≈ 56.6 µM)	0.5 µg/mL (≈ 0.442 µM)	4 µg/mL (≈ 3.54 µM)	16 µg/mL (≈ 14.2 µM)	0.25 µg/mL (≈ 0.221 µM)	16 µg/mL (≈ 14.2 µM)	0.5 µg/mL (≈ 0.442 µM)	0.125 µg/mL (≈ 0.111 µM)	1 µg/mL (≈ 0.885 µM)	2 µg/mL (≈ 1.77 µM)	0.25 µg/mL (≈ 0.221 µM)	152 µg/mL	0.25 µg/mL (≈ 0.221 µM)	0.06 µg/mL (≈ 0.0531 µM)	0.25 µg/mL (≈ 0.221 µM)	0.06 µg/mL (≈ 0.0531 µM)	CC(C)C[C@@H]1NC(=O)[C@@H](CC2CCCCC2)NC(=O)[C@H](CCN)NC(=O)[C@@H](NC(=O)[C@H](CN)NC(=O)[C@@H](NC(=O)C(CCN)Cc2ccccc2)C(C)O)CCNC(=O)[C@H]([C@@H](C)O)NC(=O)[C@H](CCN)NC(=O)[C@H](CCN)NC1=O (single isomer, unassigned; isomer 2) [Example 35, 4-amino-2-benzylbutanoyl L-Thr-L-Dap-polymyxin [D-cyclohexylalanine]-6 heptapeptide. Isomer 2]	–

The next lines start with the molecule.

Molecule	MIC A. baumanii 053 [1]	MIC A. baumanii 056 [1]	MIC A. baumanii ATCC BAA-747 [1]	MIC E. coli 058 [2]	MIC E. coli 061 [2]	MIC E. coli ATCC 25922 [2]	MIC K. pneumoniae 063 [3]	MIC K. pneumoniae 065 [3]	MIC K. pneumoniae ATCC 4352 [3]	MIC P. aeruginosa 068 [4]	MIC P. aeruginosa 070 [4]	MIC P. aeruginosa ATCC 27853 [4]	HK-2 IC50 [5]	MIC A. baumanii NCTC 13424 [1]	MIC E. coli NCTC 9001 [2]	MIC P. aeruginosa CCUG 59347 [4]	MIC K. pneumoniae ATCC 13882 [3]	further results
CC(C)CC1CNCC(C(=O)N[C@H](C(=O)N[C@@H](CN)C(=O)N[C@H]2CCNC(=O)[C@H]([C@@H](C)O)NC(=O)[C@H](CCN)NC(=O)[C@H](CCN)NC(=O)[C@H](CC(C)C)NC(=O)[C@@H](Cc3ccc(-c4ccccc4)cc3)NC(=O)[C@H](CCN)NC2=O)C(C)O)C1 (single isomer, unassigned; isomer 1) [Example 3, (trans-5-(isobutyl-piperidine)-3-carbonyl L-Thr-L-Dap-polymyxin [D-(4-phenyl)Phe]-6] heptapeptide. Isomer 1]	64 µg/mL (≈ 53.7 µM)	4 µg/mL (≈ 3.35 µM)	2 µg/mL (≈ 1.68 µM)	8 µg/mL (≈ 6.71 µM)	32 µg/mL (≈ 26.8 µM)	0.5 µg/mL (≈ 0.419 µM)	>64 µg/mL	32 µg/mL (≈ 26.8 µM)	0.5 µg/mL (≈ 0.419 µM)	4 µg/mL (≈ 3.35 µM)	4 µg/mL (≈ 3.35 µM)	1 µg/mL (≈ 0.839 µM)	34 µg/mL	–	–	–	–	MIC E. coli 059 [2]: 8 µg/mL (≈ 6.71 µM); MIC E. coli 060 [2]: 16 µg/mL (≈ 13.4 µM); MIC K. pneumoniae 062 [3]: >64 µg/mL; MIC K. pneumoniae 064 [3]: 32 µg/mL (≈ 26.8 µM); MIC K. pneumoniae 067 [3]: >64 µg/mL
CCCCCCCCC1CNCC1C(=O)N[C@H](C(=O)N[C@@H](CCN)C(=O)N[C@H]1CCNC(=O)[C@H]([C@@H](C)O)NC(=O)[C@H](CCN)NC(=O)[C@H](CCN)NC(=O)[C@H](CC(C)C)NC(=O)[C@@H](Cc2ccc(-c3ccccc3)cc2)NC(=O)[C@H](CCN)NC1=O)C(C)O (single isomer, unassigned; isomer 2) [Example 8, trans-4-octylpyrrolidine-3-carbonyl polymyxin [D-(4-phenyl)Phe]-6] nonapeptide. Isomer 2]	4 µg/mL (≈ 3.2 µM)	2 µg/mL (≈ 1.6 µM)	1 µg/mL (≈ 0.801 µM)	2 µg/mL (≈ 1.6 µM)	4 µg/mL (≈ 3.2 µM)	1 µg/mL (≈ 0.801 µM)	–	1 µg/mL (≈ 0.801 µM)	1 µg/mL (≈ 0.801 µM)	2 µg/mL (≈ 1.6 µM)	2 µg/mL (≈ 1.6 µM)	1 µg/mL (≈ 0.801 µM)	3 µg/mL	–	–	–	–	MIC E. coli 059 [2]: 1 µg/mL (≈ 0.801 µM); MIC E. coli 060 [2]: 2 µg/mL (≈ 1.6 µM); MIC K. pneumoniae 062 [3]: 4 µg/mL (≈ 3.2 µM); MIC K. pneumoniae 064 [3]: 1 µg/mL (≈ 0.801 µM); MIC K. pneumoniae 066 [3]: 0.5 µg/mL (≈ 0.4 µM); MIC K. pneumoniae 067 [3]: 8 µg/mL (≈ 6.41 µM)
CC(C)CC(CN)C(=O)N[C@H](C(=O)N[C@@H](CN)C(=O)N[C@H]1CCNC(=O)[C@H]([C@@H](C)O)NC(=O)[C@H](CCN)NC(=O)[C@H](CCN)NC(=O)[C@H](CC(C)C)NC(=O)[C@@H](Cc2ccc(C3CCCCC3)cc2)NC(=O)[C@H](CCN)NC1=O)C(C)O (stereo partly drawn) [Example 27, 2-(Aminomethyl)-4-methylpentanoyl L-Thr-L-Dap-polymyxin [D-(4-cyclohexyl Phe)]-6 heptapeptide] (X2-[Thr(3ξ)][Dap][Dab][Dab][X12]L[Dab][Dab]T; lactam 3-C)	8 µg/mL (≈ 6.91 µM)	4 µg/mL (≈ 3.45 µM)	0.5 µg/mL (≈ 0.432 µM)	2 µg/mL (≈ 1.73 µM)	8 µg/mL (≈ 6.91 µM)	0.5 µg/mL (≈ 0.432 µM)	8 µg/mL (≈ 6.91 µM)	0.5 µg/mL (≈ 0.432 µM)	0.25 µg/mL (≈ 0.216 µM)	4 µg/mL (≈ 3.45 µM)	2 µg/mL (≈ 1.73 µM)	0.5 µg/mL (≈ 0.432 µM)	18 µg/mL	0.25 µg/mL (≈ 0.216 µM)	0.5 µg/mL (≈ 0.432 µM)	1 µg/mL (≈ 0.863 µM)	–	–
CC(C)CC(CN)C(=O)N[C@H](C(=O)N[C@@H](CN)C(=O)N[C@H]1CCNC(=O)[C@H]([C@@H](C)O)NC(=O)[C@H](CCN)NC(=O)[C@H](CCN)NC(=O)[C@H](CC(C)C)NC(=O)[C@@H](Cc2ccc(-c3ccc(C(F)(F)F)cc3)cc2)NC(=O)[C@H](CCN)NC1=O)C(C)O (single isomer, unassigned; isomer 1) [Example 20, 2-Aminomethyl-4-methyl pentanoyl polymyxin L-Thr-L-Dap-polymyxin [D-{4-(4-trifluoromethyl)phenyl} Phe]-6]heptapeptide. Isomer 1]	–	–	0.5 µg/mL (≈ 0.41 µM)	4 µg/mL (≈ 3.28 µM)	–	1 µg/mL (≈ 0.819 µM)	–	1 µg/mL (≈ 0.819 µM)	0.5 µg/mL (≈ 0.41 µM)	–	–	1 µg/mL (≈ 0.819 µM)	10 µg/mL	–	–	–	–	–
2-(2- Aminoethyl) octanoyl L- Thr-L-Dap- polymyxin heptapeptide [Example C6, reference compound]	–	–	–	–	–	–	–	–	–	–	–	–	–	–	–	–	–	MIC A. baumanii 053 ([1]; strain 053): 32 µg/mL; MIC A. baumanii 056 ([1]; strain 056): 32 µg/mL; MIC A. baumanii ATCC BAA-747 ([1]; strain ATCC BAA-747): 0.06 µg/mL; MIC A. baumanii NCTC 13424 ([1]; strain NCTC 13424): 0.03 µg/mL; MIC E. coli 058 ([2]; strain 058): 1 µg/mL; MIC E. coli 061 ([2]; strain 061): 8 µg/mL; MIC E. coli ATCC 25922 ([2]; strain ATCC 25922): 0.125 µg/mL; MIC E. coli NCTC 9001 ([2]; strain NCTC 9001): 0.06 µg/mL; MIC K. pneumoniae 063 ([3]; strain 063): 8 µg/mL; MIC K. pneumoniae 065 ([3]; strain 065): 0.25 µg/mL; MIC K. pneumoniae ATCC 4352 ([3]; strain ATCC 4352): 0.06 µg/mL; MIC K. pneumoniae ATCC 13882 ([3]; strain ATCC 13882): 0.125 µg/mL; MIC P. aeruginosa 068 ([4]; strain 068): 2 µg/mL; MIC P. aeruginosa 070 ([4]; strain 070): 8 µg/mL; MIC P. aeruginosa ATCC 27853 ([4]; strain ATCC 27853): 0.125 µg/mL; MIC P. aeruginosa CCUG 59347 ([4]; strain CCUG 59347): 0.125 µg/mL; HK-2 IC50 ([5]; HK-2 cells): 51 µg/mL
CC(C)C[C@@H]1NC(=O)[C@@H](CC2CCCCC2)NC(=O)[C@H](CCN)NC(=O)[C@@H](NC(=O)[C@H](CN)NC(=O)[C@@H](NC(=O)CC(N)C2CCCCC2)C(C)O)CCNC(=O)[C@H]([C@@H](C)O)NC(=O)[C@H](CCN)NC(=O)[C@H](CCN)NC1=O (single isomer, unassigned; isomer 2) [Example 33, 3-amino-3-cyclohexylpropanoyl L-Thr-L-Dap-polymyxin [D-cyclohexylalanine]-6 heptapeptide. Isomer 2]	64 µg/mL (≈ 57.7 µM)	32 µg/mL (≈ 28.9 µM)	0.25 µg/mL (≈ 0.226 µM)	2 µg/mL (≈ 1.8 µM)	16 µg/mL (≈ 14.4 µM)	0.25 µg/mL (≈ 0.226 µM)	64 µg/mL (≈ 57.7 µM)	2 µg/mL (≈ 1.8 µM)	0.03 µg/mL (≈ 0.0271 µM)	8 µg/mL (≈ 7.22 µM)	8 µg/mL (≈ 7.22 µM)	0.25 µg/mL (≈ 0.226 µM)	75 µg/mL	0.125 µg/mL (≈ 0.113 µM)	0.125 µg/mL (≈ 0.113 µM)	0.5 µg/mL (≈ 0.451 µM)	0.5 µg/mL (≈ 0.451 µM)	–
